In publication PMC4030617 (Biochemistry, 2009):
≈ marks a conversion by molar mass, not a printed value. Where “and” joins values, the source holds several entries; their conditions need not be identical. Equal entries are not always repeated.

Legend:
[1] = target: T1, SHV Asn276Asp β-lactamase (Klebsiella pneumoniae, UniProt P0AD64, N270D); test: Steady-state substrate hydrolysis kinetics, Asn276Asp; assay type: biochemical; settings: for Km: PBS pH 7.4, room temperature
[2] = system: E. coli DH10B expressing SHV Asn276Asp; test: microbe, parasite or virus in culture; assay type: cell-based; settings: Escherichia coli
[3] = system: E. coli DH10B expressing SHV Asn276Gly; test: microbe, parasite or virus in culture; assay type: cell-based; settings: Escherichia coli
[4] = system: E. coli DH10B expressing SHV Asn276Ser; test: microbe, parasite or virus in culture; assay type: cell-based; settings: Escherichia coli
[5] = system: E. coli DH10B expressing SHV Asn276Val; test: microbe, parasite or virus in culture; assay type: cell-based; settings: Escherichia coli
[6] = system: E. coli DH10B expressing SHV Asn276Thr; test: microbe, parasite or virus in culture; assay type: cell-based; settings: Escherichia coli
[7] = system: E. coli DH10B expressing SHV Asn276Gln, -Glu, -Cys; test: microbe, parasite or virus in culture; assay type: cell-based; settings: Escherichia coli
[8] = system: E. coli DH10B expressing SHV Asn276His; test: microbe, parasite or virus in culture; assay type: cell-based; settings: Escherichia coli
[9] = system: E. coli DH10B expressing SHV Asn276Ala, -Leu, -Ile; test: microbe, parasite or virus in culture; assay type: cell-based; settings: Escherichia coli
[10] = system: E. coli DH10B expressing SHV Asn276Lys, -Arg, -Tyr, -Phe; test: microbe, parasite or virus in culture; assay type: cell-based; settings: Escherichia coli
[11] = system: E. coli DH10B expressing SHV Asn276Met; test: microbe, parasite or virus in culture; assay type: cell-based; settings: Escherichia coli
[12] = system: E. coli DH10B expressing SHV Asn276Pro, -Trp; test: microbe, parasite or virus in culture; assay type: cell-based; settings: Escherichia coli
[13] = system: E. coli DH10B expressing SHV-1; test: MIC, agar dilution, strain expressing SHV-1; settings: Escherichia coli
E. coli DH10B = test: MIC, lysogeny broth agar dilution, host strain; settings: Escherichia coli
[14] = system: E. coli DH10B expressing SHV Asn276 variants; test: MIC, agar dilution, all Asn276 variants taken together; settings: for MIC of Asn276 variants compared to SHV-1: all Asn276 variants vs SHV-1, in words
[15] = target: T1, SHV Asn276Asp β-lactamase; test: Direct competition assay against nitrocefin; assay type: biochemical; settings: for increase in Ki for Asn276Asp as compared to SHV-1: Asn276Asp vs SHV-1
[16] = target: T1, SHV Asn276Asp β-lactamase; test: Inactivation kinetics; assay type: biochemical; settings: Asn276Asp vs SHV-1
SHV-1 β-lactamase [17] = target: T2, SHV-1 β-lactamase (Klebsiella pneumoniae, UniProt P0AD64); assay type: biochemical
[18] = target: T1, SHV Asn276Asp β-lactamase; test: Partition ratio; assay type: biochemical; settings: rate of inhibitor hydrolysis, calculated
SHV-1 β-lactamase [19] = target: T2, SHV-1 β-lactamase; test: biochemical
[20] = system: CC(=O)OCC1=C(C(=O)O)N2C(=O)[C@@H](NC(=O)Cc3cccs3)[C@H]2SC1; test: purified protein, by the assay type; settings: other: SHV-1, substrate hydrolysis, PBS pH 7.4, room temperature
[21] = system: CC1(C)S[C@@H]2[C@H](NC(=O)[C@H](N)c3ccccc3)C(=O)N2[C@H]1C(=O)O; test: purified protein, by the assay type; settings: other: SHV-1, substrate hydrolysis, PBS pH 7.4, room temperature
[22] = system: CCN1CCN(C(=O)N[C@@H](C(=O)N[C@@H]2C(=O)N3[C@@H]2SC(C)(C)[C@@H]3C(=O)O)c2ccccc2)C(=O)C1=O; test: purified protein, by the assay type; settings: other: SHV-1, substrate hydrolysis, PBS pH 7.4, room temperature
[23] = system: O=C(Cc1cccs1)N[C@@H]1C(=O)N2C(C(=O)O)=C(/C=C/c3ccc([N+](=O)[O-])cc3[N+](=O)[O-])CS[C@H]12; test: purified protein, by the assay type; settings: other: SHV-1, substrate hydrolysis, PBS pH 7.4, room temperature

O=C(Cc1cccs1)N[C@@H]1C(=O)N2C(C(=O)O)=C(/C=C/c3ccc([N+](=O)[O-])cc3[N+](=O)[O-])CS[C@H]12 [Nitrocefin, nitrocefin]
kcat [1]: 137 ± 14 s⁻¹ | Km [1]: 28 ± 3 µM

CC1(C)S[C@@H]2[C@H](NC(=O)[C@H](N)c3ccccc3)C(=O)N2[C@H]1C(=O)O [ampicillin]
MIC [2]: 8190 µg/mL (≈ 23400 µM) | MIC [3]: 4100 µg/mL (≈ 11700 µM) | MIC [4]: 4100 µg/mL (≈ 11700 µM) | MIC [5]: 2050 µg/mL (≈ 5860 µM) | MIC [6]: 1020 to 2050 µg/mL (≈ 2930 to 5860 µM) | MIC [7]: 1020 to 2050 µg/mL (≈ 2930 to 5860 µM) | MIC [8]: 1020 µg/mL (≈ 2930 µM) | MIC [9]: 256 to 512 µg/mL (≈ 733 to 1470 µM) | MIC [10]: 64 µg/mL (≈ 183 µM) | MIC [11]: 32 µg/mL (≈ 91.6 µM) | MIC [12]: 8 to 16 µg/mL (≈ 22.9 to 45.8 µM) | kcat [1]: 989 ± 99 s⁻¹ | Km [1]: 134 ± 13 µM | MIC [13]: > 16400 µg/mL | MIC (E. coli DH10B): 1 µg/mL (≈ 2.86 µM)

CO/N=C(\C(=O)N[C@@H]1C(=O)N2C(C(=O)O)=C(COC(C)=O)CS[C@H]12)c1csc(N)n1 [cefotaxime]
MIC of Asn276 variants compared to SHV-1 [14]: comparable to SHV-1

CC(=O)OCC1=C(C(=O)O)N2C(=O)[C@@H](NC(=O)Cc3cccs3)[C@H]2SC1 [cephalothin]
MIC [2]: 8 to 16 µg/mL (≈ 20.2 to 40.4 µM) | MIC [3]: 16 µg/mL (≈ 40.4 µM) | MIC [4]: 16 µg/mL (≈ 40.4 µM) | MIC [5]: 16 µg/mL (≈ 40.4 µM) | MIC [6]: 8 to 16 µg/mL (≈ 20.2 to 40.4 µM) | MIC [7]: 8 to 16 µg/mL (≈ 20.2 to 40.4 µM) | MIC [8]: 16 µg/mL (≈ 40.4 µM) | MIC [9]: 4 to 8 µg/mL (≈ 10.1 to 20.2 µM) | MIC [10]: 4 to 8 µg/mL (≈ 10.1 to 20.2 µM) | MIC [11]: 4 µg/mL (≈ 10.1 µM) | MIC [12]: 4 to 8 µg/mL (≈ 10.1 to 20.2 µM) | kcat [1]: 10 ± 1 s⁻¹ | Km [1]: 83 ± 11 µM | MIC [13]: 64 to 128 µg/mL (≈ 161 to 323 µM) | MIC (E. coli DH10B): 4 µg/mL (≈ 10.1 µM) | MIC, range over the variants at Asn276 ([14]; each of the variants at Asn276): 4 to 16 µg/mL

O=C(O)[C@H]1/C(=C/CO)O[C@@H]2CC(=O)N21 [clavulanate]
increase in Ki for Asn276Asp as compared to SHV-1 [15]: 5 fold and 5.4 fold | increase in KI for Asn276Asp as compared to SHV-1 [16]: 1.6 fold | kcat (SHV-1 β-lactamase [17]): 0.60 ± 0.17 s⁻¹ | kcat [18]: 0.75 ± 0.18 s⁻¹

C[C@@H](O)[C@H]1C(=O)N2C(C(=O)O)=C(S[C@@H]3CN[C@H](C(=O)N(C)C)C3)[C@H](C)[C@H]12 [meropenem]
Ki (SHV-1 β-lactamase [19]): 31 ± 3 µM | increase in Ki for Asn276Asp as compared to SHV-1 [15]: 46 fold | Ki ([15]; Ki, Asn276Asp, competition with NCF, corrected for NCF affinity): 1411 ± 14 µM | MIC of Asn276 variants compared to SHV-1 [14]: comparable to SHV-1

CCN1CCN(C(=O)N[C@@H](C(=O)N[C@@H]2C(=O)N3[C@@H]2SC(C)(C)[C@@H]3C(=O)O)c2ccccc2)C(=O)C1=O [piperacillin]
MIC [2]: 512 µg/mL (≈ 989 µM) | MIC [3]: 256 µg/mL (≈ 495 µM) | MIC [4]: 512 µg/mL (≈ 989 µM) | MIC [5]: 512 µg/mL (≈ 989 µM) | MIC [6]: 128 to 256 µg/mL (≈ 247 to 495 µM) | MIC [7]: 64 to 128 µg/mL (≈ 124 to 247 µM) | MIC [8]: 256 µg/mL (≈ 495 µM) | MIC [9]: 16 to 32 µg/mL (≈ 30.9 to 61.8 µM) | MIC [10]: 8 to 16 µg/mL (≈ 15.5 to 30.9 µM) | MIC [11]: 4 µg/mL (≈ 7.73 µM) | MIC [12]: 2 to 4 µg/mL (≈ 3.86 to 7.73 µM) | kcat [1]: 976 ± 98 s⁻¹ | Km [1]: 105 ± 18 µM | MIC [13]: 2050 µg/mL (≈ 3960 µM) | MIC (E. coli DH10B): 1 µg/mL (≈ 1.93 µM)

SHV-1 β-lactamase (Klebsiella pneumoniae)
Km [20]: 29 ± 1 µM | kcat [20]: 14 ± 1 s⁻¹ | kcat/Km [20]: 470000 ± 30000 M⁻¹ s⁻¹ | Km [21]: 183 ± 34 µM | kcat [21]: 3100 ± 300 s⁻¹ | kcat/Km [21]: 1.7e+07 ± 4e+06 M⁻¹ s⁻¹ | Km [22]: 77 ± 7 µM | kcat [22]: 898 ± 90 s⁻¹ | kcat/Km [22]: 1.2e+07 ± 1e+06 M⁻¹ s⁻¹ | Km [23]: 21 ± 3 µM | kcat [23]: 237 ± 24 s⁻¹ | kcat/Km [23]: 1.1e+07 ± 2e+06 M⁻¹ s⁻¹
